In US6294539A, “Heterocyclic hydroxamic acid derivatives as MMP inhibitors” (Advanced Syntech, LLC, priority 2000, dated 2001):

Each compound was assayed against MMP-9 (Homo sapiens, UniProt P14780) (assay: MMP-9 inhibition assay (internally quenched fluorescent peptide substrate)). Details: 1 μM; purified MMP-9 enzyme, incubation at 37 C.
Format: biochemical
Experimental: Each of the compounds of Examples 5-12 were assayed for their efficacy as MMP-9 inhibitors. The assay for MMP-9 inhibitors was performed by mixing purified MMP-9 enzyme with assay buffer, substrate, and compound to be tested. The substrate is an internally quenched fluorescent peptide that becomes unquenched upon cleavage by MMP-9 enzyme. After incubation at 37 C., the assay is stopped by addition of EDTA solution and the fluorescence is measured. The fluorescence is directly proportional to enzyme activity. A compound that is an inhibitor of MMP-9 activity will reduce the resultant fluorescent values.

Sequence of MMP-9 (P14780 94-707, species assumed): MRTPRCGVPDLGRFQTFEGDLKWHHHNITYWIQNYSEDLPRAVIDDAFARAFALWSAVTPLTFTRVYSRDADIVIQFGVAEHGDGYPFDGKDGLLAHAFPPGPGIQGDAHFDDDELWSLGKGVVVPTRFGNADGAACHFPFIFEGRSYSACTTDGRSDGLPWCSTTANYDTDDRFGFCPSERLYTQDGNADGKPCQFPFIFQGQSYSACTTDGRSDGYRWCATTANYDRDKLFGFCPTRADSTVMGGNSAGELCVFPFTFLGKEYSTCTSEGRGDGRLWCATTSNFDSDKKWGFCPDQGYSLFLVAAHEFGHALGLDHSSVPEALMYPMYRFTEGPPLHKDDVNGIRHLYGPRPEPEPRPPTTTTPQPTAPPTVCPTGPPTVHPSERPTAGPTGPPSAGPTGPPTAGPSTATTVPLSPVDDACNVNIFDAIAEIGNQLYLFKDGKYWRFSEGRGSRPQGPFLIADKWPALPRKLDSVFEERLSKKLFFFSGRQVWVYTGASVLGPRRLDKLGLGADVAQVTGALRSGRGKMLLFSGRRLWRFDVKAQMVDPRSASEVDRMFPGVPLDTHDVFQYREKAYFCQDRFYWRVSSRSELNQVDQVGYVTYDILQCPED

inhibition at 1 µM | SMILES
52% | COc1ccc(S(=O)(=O)N(CCc2cccc(Cl)c2)CC(=O)N2CC(=O)N(Cc3ccc(F)cc3)CC2CC(=O)NO)cc1 (stereo not drawn) [Example 4, 2-{1-[N-(3-Chlorophenethyl)-N-(4-methoxybenzenesufonyl)-aminoacetyl]-4-(4-fluorobenzyl)-5-oxo-piperazin-2-yl}-N-hydroxy-acetamide]
42% | COc1ccc(CCN(CC(=O)N2CC(=O)N(Cc3ccc(F)cc3)CC2CC(=O)NO)S(=O)(=O)c2ccc(OC)cc2)cc1 (stereo not drawn) [Example 5, 2-{4-(4-fluorobenzyl)-1-[N-(4-methoxybenzenesufonyl)-N-(4-methoxyphenethyl)-aminoacetyl]-5-oxo-piperazin-2-yl}-N-hydroxy-acetamide]
62% | COc1ccc(S(=O)(=O)N(CCc2cccc(Cl)c2)CC(=O)N2CC(=O)N(Cc3cc(OC)cc(OC)c3)CC2CC(=O)NO)cc1 (stereo not drawn) [Example 7, 2-{1-[N-(3-Chlorophenethyl)-N-(4-methoxybenzenesufonyl)-aminoacetyl]-4-(3,5-dimethoxybenzyl)-5-oxo-piperazin-2-yl}-N-hydroxy-acetamide]
35% | COc1ccc(CCN(CC(=O)N2CC(=O)N(Cc3cc(OC)cc(OC)c3)CC2CC(=O)NO)S(=O)(=O)c2ccc(OC)cc2)cc1 (stereo not drawn) [Example 8, 2-{4-(3,5-Dimethoxybenzyl)-1-[N-(4-methoxybenzenesufonyl)-N-(4-methoxyphenethyl)-aminoacetyl]-5-oxo-piperazin-2-yl}-N-hydroxy-acetamide]

Same assay, conditions: purified MMP-9 enzyme, incubation at 37 C

IC50 | SMILES
50 nM | COc1ccc(S(=O)(=O)N(CCc2cccc(Cl)c2)CC(=O)N2C(CC(=O)NO)CN(Cc3ccc(F)cc3)C(=O)[C@@H]2C)cc1 (single isomer, unassigned) [3A (isomer A)]
53 nM | COc1ccc(S(=O)(=O)N(CCc2cccc(Cl)c2)CC(=O)N2C(CC(=O)NO)CN(Cc3ccc(F)cc3)C(=O)[C@@H]2C)cc1 (single isomer, unassigned) [3B (isomer B)]
100 nM | COc1ccc(CCN(CC(=O)N2C(CC(=O)NO)CN(Cc3ccc(F)cc3)C(=O)[C@@H]2C)S(=O)(=O)c2ccc(OC)cc2)cc1 (stereo partly drawn) [Example 6, 2-{4-(4-Fluorobenzyl)-1-[N-(4-methoxybenzenesufonyl)-N-(4-methoxyphenethyl)-aminoacetyl]-6-(S)-methyl-5-oxo-piperazin-2-yl}-N-hydroxy-acetamide]
120 nM | COc1ccc(S(=O)(=O)N(CCc2cccc(Cl)c2)CC(=O)N2C(CC(=O)NO)CN(Cc3cc(OC)cc(OC)c3)C(=O)[C@@H]2C)cc1 (stereo partly drawn) [Example 9, 2-{1-[N-(3-Chlorophenethyl)-N-(4-methoxybenzenesufonyl)-aminoacetyl]4-(3,5-dimethoxybenzyl)-6-(S)-methyl-5-oxo-piperazin-2-yl}-N-hydroxy-acetamide]
150 nM | COc1ccc(CCN(CC(=O)N2C(CC(=O)NO)CN(Cc3cc(OC)cc(OC)c3)C(=O)[C@@H]2C)S(=O)(=O)c2ccc(OC)cc2)cc1 (stereo partly drawn) [Example 10, 2-{4-(3,5-dimethoxybenzyl)-1-[N-(4-methoxybenzenesufonyl)-N-(4-methoxyphenethyl)-aminoacetyl]-6-(S)-methyl-5-oxo-piperazin-2-yl}-N-hydroxy-acetamide]
